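In this assay, cells in 96-well plates receive the compound at five concentrations for 48 hours. Endpoints are linearly interpolated between the surrounding concentrations. GI50 marks 50% less growth. TGI: concentration producing complete growth inhibition.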
Legend:
Test in all cases: DTP human tumour cell line panel, 48 h
SF-295 CNS = system: SF-295 CNS
RPMI-8226 leukemia = system: RPMI-8226 leukemia
UACC-62 melanoma = system: UACC-62 melanoma
NCI-H460 lung = system: NCI-H460 lung
HS 578T breast = system: HS 578T breast
NCI-H522 lung = system: NCI-H522 lung
OVCAR-3 ovarian = system: OVCAR-3 ovarian
NCI-H226 lung = system: NCI-H226 lung
HT29 colon = system: HT29 colon
T-47D breast = system: T-47D breast

Structure (SMILES) | GI50 (SF-295 CNS) | TGI (SF-295 CNS) | GI50 (RPMI-8226 leukemia) | TGI (RPMI-8226 leukemia) | GI50 (UACC-62 melanoma) | TGI (UACC-62 melanoma) | GI50 (NCI-H460 lung) | TGI (NCI-H460 lung) | TGI (HS 578T breast) | TGI (NCI-H522 lung) | TGI (OVCAR-3 ovarian) | TGI (NCI-H226 lung) | TGI (HT29 colon) | TGI (T-47D breast) | GI50 (HS 578T breast) | GI50 (NCI-H522 lung) | GI50 (T-47D breast) | GI50 (OVCAR-3 ovarian) | GI50 (NCI-H226 lung) | GI50 (HT29 colon)
NCCCNc1nc2ccccc2c2c(=O)c3cc(C(F)(F)F)ccc3sc12 | 1.8 µM | 3.21 µM | 2.06 µM | 4.71 µM | 1.68 µM | 3.09 µM | 1.66 µM | 3.17 µM |  |  |  |  |  |  |  |  |  |  |  | 
CCCc1cc(=O)oc2c3c(c4c(c12)OC(C)(C)C=C4)O[C@@H](C)[C@H](C)C3=O |  | 31.7 µM |  | 31.2 µM |  |  |  | 44.4 µM | 38.7 µM | 29.8 µM | 49.1 µM | 41.6 µM | 23.2 µM |  |  |  |  |  |  | 
CCCN(CCCC(NC(C)=O)C(=O)NCc1ccccc1)C(=O)NC (stereo unspecified) |  | > 100 µM |  | > 100 µM |  | > 100 µM |  | > 100 µM |  | > 100 µM | > 100 µM | > 100 µM | > 100 µM |  |  |  |  |  |  | 
CC1CC[C@@]2(OC1)OC1C[C@H]3[C@@H]4C/C(=N\N(C)C)[C@@]5(O)CC(O)CC[C@]5(C)[C@H]4CC[C@]3(C)C1[C@@H]2C (stereo partly specified) |  |  |  | > 100 µM |  | > 100 µM |  | > 100 µM | > 100 µM |  | > 100 µM | > 100 µM | 49.2 µM | > 100 µM |  |  |  |  |  | 
CC(OC(=O)NCn1cc(-c2ccccc2)nn1)c1ccccc1 (stereo unspecified) |  | > 100 µM |  | > 100 µM |  |  |  | > 100 µM |  | > 100 µM |  | 56.4 µM | > 100 µM |  |  |  |  |  |  | 
COc1nc(SC)nc2c1cnn2C1OC(C(O)CO)C(OC)C1O (stereo unspecified) |  | > 100 µM |  | > 100 µM |  | > 100 µM |  | > 100 µM |  | > 100 µM | > 100 µM | > 100 µM | > 100 µM |  |  |  |  |  |  | 
O=C1NC(Cc2c[nH]c3ccccc23)C(=O)N2C(C3CCCCC3)c3[nH]c4ccccc4c3C[C@@H]12 (stereo partly specified) |  | 43.5 µM |  | 32.8 µM |  | 34.5 µM |  |  | 12.7 µM | 28.6 µM | 6.58 µM | 65.7 µM | 29.6 µM |  |  |  |  |  |  | 
COC(=O)C(O)P(=O)(OC)OC (stereo unspecified) |  | > 100 µM |  | > 100 µM |  | > 100 µM |  |  | > 100 µM | > 100 µM | > 100 µM | > 100 µM | > 100 µM | > 100 µM |  |  |  |  |  | 
Cc1ccc(-c2c(C#N)c(S)n(NS(=O)(=O)c3ccc(C)cc3)c(=O)c2C#N)cc1 |  | 51.3 µM |  | > 100 µM |  | > 100 µM |  |  |  | 48.1 µM | > 100 µM | 39.6 µM |  |  |  |  |  |  |  | 
Nc1c(-c2nc3ccccc3s2)c2ccc([N+](=O)[O-])cc2c(=O)n1-c1cccc(C(=O)O)c1 |  |  |  |  |  | 58.6 µM |  | > 100 µM | > 100 µM | > 100 µM |  | 71.5 µM | > 100 µM | 64.1 µM |  |  |  |  |  | 
CC(=O)O/N=C/c1ncccc1OC(C)=O |  | > 100 µM |  |  |  | > 100 µM |  | > 100 µM |  | > 100 µM | > 100 µM | > 100 µM | > 100 µM |  |  |  |  |  |  | 
CCOC(=O)c1c(C)c2c(n1C)CCc1cn[nH]c1-2 |  | > 100 µM |  | > 100 µM |  | > 100 µM |  | > 100 µM |  | > 100 µM | > 100 µM | > 100 µM | > 100 µM |  |  |  |  |  |  | 
O=c1cc(N2CCOCC2)[nH]c(=O)n1-c1cccc(C(F)(F)F)c1 |  | > 100 µM |  |  |  | > 100 µM |  | > 100 µM | > 100 µM | > 100 µM | > 100 µM | > 100 µM | > 100 µM | > 100 µM |  |  |  |  |  | 
CCCc1c(OC)c(=O)c2c(OC)cc(OC)c3c4c(OC)cc(OC)c5c(=O)c(OC)c(CCC)c(c1c23)c54 |  | 33.1 µM |  |  |  | 24.1 µM |  | 34.5 µM |  |  | 31.8 µM | 38.9 µM | 24.1 µM | 20.6 µM |  |  |  |  |  | 
CN(C)c1ccc(/C=C(\C#N)C(N)=C(C#N)C#N)cc1 |  | > 100 µM |  |  |  | > 100 µM |  | > 100 µM | > 100 µM | > 100 µM | > 100 µM | > 100 µM | > 100 µM | > 100 µM |  |  |  |  |  | 
Clc1ccc(SCCSCCCCCCCCCCSCCSc2ccc(Cl)cc2)cc1 |  | > 100 µM |  | > 100 µM |  | > 100 µM |  | > 100 µM |  | > 100 µM | > 100 µM | > 100 µM | > 100 µM |  |  |  |  |  |  | 
NC(=O)N1N=C2c3ccccc3CC[C@@H]2C1c1ccccc1 (stereo partly specified) |  | > 100 µM |  | > 100 µM |  | > 100 µM |  | > 100 µM |  | > 100 µM | > 100 µM | > 100 µM | > 100 µM |  |  |  |  |  |  | 
O=C1CN2Cc3cc(N4CCOCC4)ccc3N=C2N1 |  | > 100 µM |  | > 100 µM |  | > 100 µM |  | > 100 µM | > 100 µM |  | > 100 µM | > 100 µM | > 100 µM | > 100 µM |  |  |  |  |  | 
CCCn1c(SCC)c2ccccc2c1-c1nc(F)nc(F)n1 |  | > 100 µM |  | > 100 µM |  |  |  | > 100 µM |  | > 100 µM | > 100 µM | > 100 µM | > 100 µM |  |  |  |  |  |  | 
COC(=O)C(CCCC1(c2ccccc2)OCCO1)C(C)=O (stereo unspecified) |  | > 100 µM |  |  |  |  |  | > 100 µM |  | > 100 µM | > 100 µM | > 100 µM | > 100 µM |  |  |  |  |  |  | 
COc1ccc2nc3ccc(OC)cc3c(S(=O)(=O)Cc3ccc([N+](=O)[O-])cc3)c2c1 |  | > 100 µM |  |  |  | > 100 µM |  | > 100 µM |  | > 100 µM | > 100 µM | > 100 µM | > 100 µM | > 100 µM |  |  |  |  |  | 
O=c1[nH]c(Nc2cccc(C(F)(F)F)c2)nc2nc[nH]c12 |  | > 100 µM |  | > 100 µM |  |  |  |  | > 100 µM | > 100 µM | > 100 µM | > 100 µM | > 100 µM | > 100 µM |  |  |  |  |  | 
OC12COc3ccccc3C1Oc1ccccc1C2 (stereo unspecified) |  | > 100 µM |  | > 100 µM |  | > 100 µM |  |  |  | > 100 µM | > 100 µM | > 100 µM | > 100 µM | > 100 µM |  |  |  |  |  | 
COc1cc2c(c(C)c1O)[C@H]1COc3ccccc3[C@H]1O2 |  | > 100 µM |  | 75.3 µM |  |  |  | 31.8 µM |  | 13.5 µM | > 100 µM | 34.5 µM | > 100 µM |  |  |  |  |  |  | 
COCC1CCCN1c1ccc(/C=C(/C#N)C(N)=S)cc1 (stereo unspecified) | > 100 µM | > 100 µM |  |  |  |  | > 100 µM | > 100 µM | > 100 µM | 61.4 µM | > 100 µM | > 100 µM | > 100 µM | > 100 µM | > 100 µM | 12.7 µM | 30.6 µM | > 100 µM | 34.6 µM | > 100 µM

— PubChem BioAssay (NCI)
